Measurements published in article PMC9927457 (Microbiology Spectrum, 2023).
≈ marks a conversion by molar mass, not a printed value. Read-outs that look alike come from different tables or passages of the source.

Experiments:
[1] = tested on: M. tuberculosis wild-type strain; test: MIC against wild-type M. tuberculosis; type: cell-based, Mycobacterium tuberculosis; conditions: for MIC: read-out: MIC Wild type
[2] = tested on: M. tuberculosis strain under expressing LepB (LepB-UE); test: microbe, parasite or virus in culture; type: cell-based, Mycobacterium tuberculosis
HepG2 cells = test: HepG2 cytotoxicity; type: cell-based, human; conditions: 3 days exposure, CellTiter-Glo
Experimental: HepG2 cells were used to measure eukaryotic cytotoxicity. Viability of HepG2 was measured using CellTiter-Glo reagent (Promega) after 3 days of exposure to compounds. […] Staurosporine controls (maximum inhibition) and a staurosporine dose response were included on every plate.

RAW 264.7 macrophages = test: Cytotoxicity against infected macrophages; type: cell-based, murine; conditions: Mus musculus; infected RAW264:7 cells, 72 h; read-out: IC50 Macrophage
Experimental: Murine RAW 264.7 macrophages (ATCC TIB-71) were infected with M. tuberculosis DsRed (DREAM8) ([29]) as described at a multiplicity of infection of 1 for 24 h, washed, harvested, and dispensed into 384-well plates ([30]). Infected macrophages were exposed to compounds for 72 h; cell nuclei were stained with SYBR green I. Plates were imaged with an ImageXpress Micro High Content Screening System (Molecular Devices) using a ×4 objective and FITC and Texas Red channels. MetaXpress was used to determine the integrated intensity of bacteria or macrophages. […] Isoniazid and staurosporine controls (maximum inhibition) and dose responses were included on every plate.

[3] = molecular target: SPase activity in M. tuberculosis H37Rv cell membrane fractions (Mycobacterium tuberculosis, UniProt P9WKA1); test: Inhibition of secretion (SPase activity) in membrane fractions; type: biochemical; conditions: fluorogenic peptide substrate 2 μM; 4 h, 37 °C
Chain of SPase activity in M. tuberculosis H37Rv cell membrane fractions (P9WKA1 whole entry): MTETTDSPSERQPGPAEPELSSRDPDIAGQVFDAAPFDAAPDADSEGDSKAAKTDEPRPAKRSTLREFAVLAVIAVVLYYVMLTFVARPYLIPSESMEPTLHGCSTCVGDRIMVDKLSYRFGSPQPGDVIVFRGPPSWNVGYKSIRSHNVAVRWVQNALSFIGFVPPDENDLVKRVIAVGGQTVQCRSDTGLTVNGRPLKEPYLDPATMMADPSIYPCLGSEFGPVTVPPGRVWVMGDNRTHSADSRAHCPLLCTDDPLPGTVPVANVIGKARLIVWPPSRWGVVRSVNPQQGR

[4] = Plasma protein binding (Rapid Equilibrium Dialysis); type: in vitro ADME, human; conditions: human plasma; for fraction unbound: human, plasma
Experimental: Molecule fraction fraction Post-Assay
Table S5. Plasma protein binding
Protein binding was measured in human plasma using Rapid Equilibrium Dialysis (RED) devices (Pierce) according to the manufacturers’ instructions; 5 µM compounds in plasma were dialysed against PBS for 4 h at 37C. Compounds were detected by LC-MS/MS in plasma and PBS

Caco-2 cells = test: Caco-2 permeability
Experimental: (§1) Permeability was measured across Caco-2 cells cultured in a Millipore 96-well Caco-2 plate. For apical to basolateral (A→B) permeability, 10 μM compound was added to the apical (A) side and amount of permeation was determined on the basolateral (B) side; for basolateral to apical (B→A) permeability, the compound was added to the B side and the amount of permeation was determine on the A side. Time points were taken at 2 h.
Table S2. Permeability. Permeability was measured using Caco-2 cells after 1 and 2 hours incubation with compound. (A→B) is Apical to Basolateral; (B→A) is Basolateral to Apical. Data is expressed as permeability (10-6 cm s-1). dQ/dt is rate of permeation, C0 is initial concentration […]
Article Duration direction value replicate replicate mean recovery

[5] = Microsomal metabolic stability; conditions: human, microsomes, pH 7.4
Experimental: as §1
Table S3. Metabolic stability. Metabolic stability was measured using human liver microsomes. […]

[6] = Mycobacterium tuberculosis, 120 h, concentration required to inhibit growth by 90%, 5 days culture
[7] = Mycobacterium tuberculosis, 120 h
[8] = concentration required to inhibit growth by 90%, 5 days culture

Molecule | MIC [1, 6] | MIC [2, 7] | IC50 (HepG2 cells; Homo sapiens, HepG2, 72 h) | other results
CCCCNC(=S)Nc1nc2cccc(Cl)c2o1 [Molecule 34, 1-butyl-3-(7-chlorobenzo[d]oxazol-2-yl)thiourea] | > 200 µM | 53 ± 1 µM (≈ 15 µg/mL) | 13 ± 3 µM | IC50 (RAW 264.7 macrophages): 5.8 ± 0.4 µM
CCCCNC(=S)Nc1nc(C)cs1 [Molecule 16, 1-butyl-3-(4-methylthiazol-2-yl)thiourea] | 59 ± 1 µM (≈ 13.5 µg/mL) | 85 ± 17 µM (≈ 19.5 µg/mL) | > 100 µM | IC50 [3]: > 200 µM
COc1ccc(NC(=S)Nc2nccs2)cc1 [Molecule 8] | 27 µM (≈ 7.16 µg/mL) | – | 21 ± 19 µM | MIC Wild type [1, 8]: 27 ± 17 µM (≈ 7.16 µg/mL); IC50 [3]: > 200 µM
CCCCSC(=S)Nc1nc2ccccc2s1 [Molecule 25, butyl benzo[d]thiazol-2-ylcarbamodithioate] | 90 ± 20 µM (≈ 25.4 µg/mL) | 101 ± 27 µM (≈ 28.5 µg/mL) | 29 ± 1 µM | –
CCCCNC(=S)Nc1nc2ccc(Cl)cc2o1 [Molecule 33, 1-butyl-3-(6-chlorobenzo[d]oxazol-2-yl)thiourea] | > 200 µM | 49 ± 6 µM (≈ 13.9 µg/mL) | 32 ± 3 µM | IC50 [3]: > 200 µM
CCCCNC(=S)Nc1ccccn1 [Molecule 9] | > 200 µM | 100 µM (≈ 20.9 µg/mL) | 65 ± 50 µM | –
CC(=O)CC(c1ccccc1)c1c(O)c2ccccc2oc1=O (centres unmarked) [Warfarin, reference compound] | – | – | – | recovery at 4 h, 5 µM ([4]; RED device, read-out: Post-Assay Recovery): 88.6%; fraction unbound ([4]; 5 µM, dialysed against PBS 4 h at 37C, read-out: Mean plasma fraction Bound (converted)): 0.007; fraction unbound ([4]; 5 µM, dialysed against PBS 4 h at 37C, read-out: Mean plasma fraction Unbound Fuplasma): 0.0067
1-butyl-3-(5-methoxybenzo[d]oxazol-2-yl)thiourea [Molecule 35] | – | – | – | MIC [1, 8]: >200 µM; MIC [2]: >200 µM; IC50 (HepG2 cells): > 100 µM
CCCCN(C)C(=S)Nc1nc2ccccc2s1 [Molecule 27, 3-(benzo[d]thiazol-2-yl)-1-butyl-1-methylthiourea] | 195 ± 7 µM (≈ 54.5 µg/mL) | 155 to 195 µM (≈ 43.3 to 54.5 µg/mL) | 5.6 µM | MIC [1, 7]: 155 to 195 µM (≈ 43.3 to 54.5 µg/mL); MIC LepB-UE [2]: 155 ± 36 µM (≈ 43.3 µg/mL); IC50 (HepG2 cells): 6 ± 5 µM; IC50 [3]: > 200 µM
CCCCCC(=O)Nc1nc2ccccc2s1 [Molecule 2] | > 200 µM | > 200 µM | 74 ± 13 µM | –
CCCCCCNc1nc2ccccc2s1 [Molecule 4] | 125 µM (≈ 29.3 µg/mL) | < 100 µM | 55 ± 8.5 µM | MIC Wild type [1, 8]: 125 ± 13 µM (≈ 29.3 µg/mL); MIC LepB-UE [2]: 82 ± 16 µM (≈ 19.2 µg/mL)
CCCCNC(=S)NC1=NCCS1 [Molecule 15, 1-butyl-3-(4,5-dihydrothiazol-2-yl)thiourea] | 170 µM (≈ 37 µg/mL) | 160 µM (≈ 34.8 µg/mL) | 75 µM | MIC Wild type [1, 8]: 170 ± 1.0 µM (≈ 37 µg/mL); MIC LepB-UE [2]: 160 ± 1.0 µM (≈ 34.8 µg/mL); IC50 (HepG2 cells): > 100 µM
CCCCNC(=S)Nc1nc2c(Cl)cccc2s1 [Molecule 13, 1-butyl-3-(4-chlorobenzo[d]thiazol-2-yl)thiourea] | > 200 µM | 7.9 µM (≈ 2.37 µg/mL) | > 100 µM | MIC LepB-UE [2]: 7.9 ± 0.6 µM (≈ 2.37 µg/mL); IC50 (RAW 264.7 macrophages): 12 ± 2.8 µM; IC50 [3]: > 200 µM
CCCCNC(=S)Nc1nc2ccccc2[nH]1 [Molecule 11, 1-(benzo[d]imidazol-2-yl)-3-butylthiourea] | 120 ± 10 µM (≈ 29.8 µg/mL) | 29 ± 2.1 µM (≈ 7.2 µg/mL) | 6 ± 0.1 µM | IC50 [3]: > 200 µM
CCCCNC(=S)Nc1nc2cc(Cl)ccc2o1 [Molecule 32, 1-butyl-3-(5-chlorobenzo[d]oxazol-2-yl) thiourea] | 84 ± 13 µM (≈ 23.8 µg/mL) | 68 ± 3 µM (≈ 19.3 µg/mL) | 9 ± 3 µM | –
CCCCNC(=S)Nc1nc(C)c(C)s1 [Molecule 17, 1-butyl-3-(4,5-dimethylthiazol-2-yl)thiourea] | > 200 µM | 112 ± 25 µM (≈ 27.3 µg/mL) | > 100 µM | –
CCCCNC(=S)Nc1nccc(C)n1 [Molecule 20, 1-butyl-3-(4-methylpyrimidin-2-yl)thiourea] | > 200 µM | > 200 µM | > 100 µM | –
COc1ccc(NC(=S)Nc2nc3ccccc3s2)cc1 [Molecule 7] | > 200 µM | > 200 µM | > 100 µM | –
CC(C)CNC(=S)Nc1nc2ccccc2s1 [Molecule 28, 1-(benzo[d]thiazol-2-yl)-3-isobutylthiourea] | – | 12 to 21 µM (≈ 3.18 to 5.57 µg/mL) | – | MIC LepB-UE [2]: 21 ± 11 µM (≈ 5.57 µg/mL)
CCCCNC(=S)Nc1ncc(C)o1 [Molecule 22, 1-butyl-3-(5-methyloxazol-2-yl)thiourea] | 10 µM (≈ 2.13 µg/mL) | 8 to 9 µM (≈ 1.71 to 1.92 µg/mL) | 32 ± 19 µM | MIC Wild type [1, 8]: 10 ± 12 µM (≈ 2.13 µg/mL); MIC LepB-UE [2]: 9.1 ± 0.4 µM (≈ 1.94 µg/mL); IC50 (RAW 264.7 macrophages): 7.1 ± 1.5 µM
c1ccc2scnc2c1 [Molecule 10] | > 200 µM | > 100 µM | 7.6 ± 6.2 µM | –
CCCCNC(=S)Nc1ccc2scnc2c1 [Molecule 30, 1-(benzo[d]thiazol-5-yl)-3-butylthiourea] | 73 ± 12 µM (≈ 19.4 µg/mL) | 49 ± 15 µM (≈ 13 µg/mL) | > 100 µM | –
CC(C)NC[C@H](O)COc1cccc2ccccc12 (racemic) [Propanolol, propanolol, reference compound] | – | – | – | Efflux ratio (Re) (Caco-2 cells; Papp(B→A)/Papp(A→B)): 1.5; Mean A→B Papp (Caco-2 cells; apical to basolateral, 10 μM compound, 2 h): 20 10^−6 cm/s; Mean B→A Papp (Caco-2 cells; basolateral to apical, 10 μM compound, 2 h): 30 10^−6 cm/s; Mean plasma fraction Unbound Fuplasma ([4]; 5 µM, dialysed against PBS 4 h at 37C): 28.00%; Post-Assay Recovery ([4]; RED device): 89.4%
Cc1ccc(C(=O)Nc2nc3ccccc3s2)cc1 [Molecule 3] | > 200 µM | 140 µM (≈ 37.6 µg/mL) | > 100 µM | –
S=C(NCc1ccccc1)Nc1nc2ccccc2s1 [Molecule 6] | > 200 µM | – | 6 ± 0.1 µM | –
CCCCNC(=S)Nc1ccnn1C [Molecule 19, 1-butyl-3-(1-methyl-1H-pyrazol-5-yl)thiourea] | > 200 µM | > 200 µM | > 100 µM | IC50 [3]: > 200 µM
CCCCNC(=O)Nc1nc2ccccc2s1 [Molecule 5] | > 200 µM | < 100 µM | 39 ± 25 µM | MIC LepB-UE [2]: 61 ± 9.1 µM (≈ 15.2 µg/mL)
COc1ccc2c(c1)[C@]13CCCC[C@@H]1[C@H](C2)N(C)CC3 [Dextromethorphan, dextromethorphan, reference compound] | – | – | – | half-life at 1 µM [5]: 1.97 h; microsomal CLint at 1 µM [5]: 19.5 µL/min/mg
CCCCNC(=S)Nc1nc(C)c[nH]1 [Molecule 18, 1-butyl-3-(4-methyl-1H-imidazol-2-yl)thiourea] | 44 µM (≈ 9.34 µg/mL) | 51 µM (≈ 10.8 µg/mL) | 61 ± 4 µM | MIC Wild type [1, 8]: 44 ± 8.0 µM (≈ 9.34 µg/mL); MIC LepB-UE [2]: 51 ± 1.0 µM (≈ 10.8 µg/mL)
